What all share (assay type): biochemical
One test concerns the target T1, Kdr (Homo sapiens, UniProt P35968).
T1 construct: purchased Invitrogen (assay run by Invitrogen)
Description: Z'-Lyte FRET kinase assay (Invitrogen), Kdr. As to conditions: read-out: IC50, activity toward kinase Kdr.

In the next test the target is T2, Stk6 (Homo sapiens, UniProt O14965).
T2 construct: purchased Invitrogen (Carlsbad, Calif.), screening service
T2 sequence (O14965 1-403): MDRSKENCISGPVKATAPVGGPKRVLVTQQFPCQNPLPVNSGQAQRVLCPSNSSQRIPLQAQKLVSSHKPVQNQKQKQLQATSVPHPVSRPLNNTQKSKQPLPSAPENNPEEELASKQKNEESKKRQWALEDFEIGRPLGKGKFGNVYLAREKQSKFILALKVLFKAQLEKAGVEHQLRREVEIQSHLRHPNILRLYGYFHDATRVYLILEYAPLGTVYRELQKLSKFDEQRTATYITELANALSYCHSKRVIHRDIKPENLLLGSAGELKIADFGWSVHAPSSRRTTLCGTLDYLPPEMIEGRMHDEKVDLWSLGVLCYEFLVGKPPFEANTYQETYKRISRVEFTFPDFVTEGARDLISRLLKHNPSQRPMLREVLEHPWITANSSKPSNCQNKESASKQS
Description: Z'-Lyte FRET kinase assay (Invitrogen), Stk6. As to conditions: read-out: IC50, activity toward kinase Stk6.

Another test concerns the target T3, Kit (Homo sapiens, UniProt P10721).
T3 construct: P1332.N6 BI PTP KIT M552-K948-X COD; His6 (N); made in house; host or cells: E. coli (PTP1B co-expressed)
The experiment in a line: AlphaScreen kinase assay, Kit. Particulars: read-out: IC50, activity toward kinase Kit.

The target in another test is T4, Ret (Homo sapiens, UniProt P07949).
T4 construct: P1378.pET-SF BI-PTP RET H661-R1012 HIS; made in house
T4 sequence (P07949 with tags, fused parts or gaps): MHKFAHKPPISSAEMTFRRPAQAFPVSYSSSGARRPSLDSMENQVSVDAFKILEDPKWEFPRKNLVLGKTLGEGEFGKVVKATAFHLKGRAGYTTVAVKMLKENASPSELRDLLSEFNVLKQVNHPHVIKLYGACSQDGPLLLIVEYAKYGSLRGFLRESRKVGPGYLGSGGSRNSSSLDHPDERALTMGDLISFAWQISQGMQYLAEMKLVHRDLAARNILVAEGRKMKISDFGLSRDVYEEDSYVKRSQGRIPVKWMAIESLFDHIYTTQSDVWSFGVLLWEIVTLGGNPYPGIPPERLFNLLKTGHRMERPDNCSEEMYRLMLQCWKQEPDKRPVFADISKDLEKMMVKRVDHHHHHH
The experiment in a line: AlphaScreen kinase assay, Ret. As to conditions: read-out: IC50, activity toward kinase Ret. Background: Alpha assays give light when donor and acceptor beads are brought close together.

The target in the next test is T5, B-Raf V600E (Homo sapiens, UniProt P15056, V600E).
T5 construct: P4254. pFastBacBD-CDC37 BRAF D437-K722-X, V600E; His6 with pFastBac HT leader (TEV site) (N); made in house; host or cells: Sf9 (baculovirus; chaperone CDC37 co-expressed)
The experiment in a line: AlphaScreen kinase assay, B-Raf V600E. As to conditions: read-out: IC50, activity toward kinase B-Raf V600E.

Another test addresses T6, Jnk3 (Homo sapiens, UniProt P53779).
T6 construct: purchased Upstate Biotechnology
Description: AlphaScreen kinase assay, Jnk3. As to conditions: read-out: IC50, activity toward kinase Jnk3.

The target in a further test is T7, FGFR1 (Homo sapiens, UniProt P11362, C488A/C584S).
T7 construct: P1351.pET N6 BI-PTP FGFR A458-E765-X C488A, C584S; made in house; host or cells: E. coli (PTP1B co-expressed)
The experiment in a line: AlphaScreen kinase assay, FGFR1. Particulars: read-out: IC50, activity toward kinase FGFR.

For another test, the target named is T8, B-Raf (Homo sapiens, UniProt P15056).
T8 construct: purchased Upstate Biotechnology
Description: AlphaScreen kinase assay, B-Raf. As to conditions: read-out: IC50, activity toward kinase B-Raf.

The target of the next test is T9, Fms (Homo sapiens, UniProt P07333).
T9 construct: purchased Upstate Biotechnology
The experiment in a line: AlphaScreen kinase assay, Fms. As to conditions: read-out: IC50, activity toward kinase Fms.

In a further test the target is T10, Fak (Homo sapiens, UniProt Q05397).
T10 construct: P1358.pFastBacHtb FAK S411-Q686-X; His6 with pFastBacHTb leader (TEV site) (N); made in house; host or cells: Sf9 (baculovirus)
The experiment in a line: AlphaScreen kinase assay, Fak. As to conditions: read-out: IC50, activity toward kinase Fak.

Data on 36 molecules can be found in patent US8415469B2, “Compounds and methods for kinase modulation, and indications therefor” (Plexxikon Inc., priority 2005, dated 2013).

A word on the IC50: it is the concentration at which inhibition is half-maximal.

T3 sequence (P10721 with tags, fused parts or gaps): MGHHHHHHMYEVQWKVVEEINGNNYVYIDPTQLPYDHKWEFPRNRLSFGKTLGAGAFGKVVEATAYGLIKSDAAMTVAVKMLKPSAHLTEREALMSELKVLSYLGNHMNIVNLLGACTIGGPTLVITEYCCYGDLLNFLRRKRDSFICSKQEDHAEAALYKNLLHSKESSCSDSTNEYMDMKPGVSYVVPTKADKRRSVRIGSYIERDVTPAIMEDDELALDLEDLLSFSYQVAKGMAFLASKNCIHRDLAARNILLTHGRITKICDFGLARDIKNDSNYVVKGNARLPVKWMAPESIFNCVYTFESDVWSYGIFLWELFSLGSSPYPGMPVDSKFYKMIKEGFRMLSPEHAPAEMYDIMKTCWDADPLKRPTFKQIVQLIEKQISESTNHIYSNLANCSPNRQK
T5 sequence (P15056 with tags, fused parts or gaps V600E): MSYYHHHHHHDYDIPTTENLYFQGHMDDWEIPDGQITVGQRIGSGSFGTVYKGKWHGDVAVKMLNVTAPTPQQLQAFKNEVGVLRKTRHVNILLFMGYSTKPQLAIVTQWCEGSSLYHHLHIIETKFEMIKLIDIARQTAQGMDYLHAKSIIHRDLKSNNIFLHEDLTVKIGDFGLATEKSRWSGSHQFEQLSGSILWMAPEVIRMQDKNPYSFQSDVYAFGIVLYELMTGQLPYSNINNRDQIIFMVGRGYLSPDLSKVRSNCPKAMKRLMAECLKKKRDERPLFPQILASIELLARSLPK
T9 sequence (P07333 20-972): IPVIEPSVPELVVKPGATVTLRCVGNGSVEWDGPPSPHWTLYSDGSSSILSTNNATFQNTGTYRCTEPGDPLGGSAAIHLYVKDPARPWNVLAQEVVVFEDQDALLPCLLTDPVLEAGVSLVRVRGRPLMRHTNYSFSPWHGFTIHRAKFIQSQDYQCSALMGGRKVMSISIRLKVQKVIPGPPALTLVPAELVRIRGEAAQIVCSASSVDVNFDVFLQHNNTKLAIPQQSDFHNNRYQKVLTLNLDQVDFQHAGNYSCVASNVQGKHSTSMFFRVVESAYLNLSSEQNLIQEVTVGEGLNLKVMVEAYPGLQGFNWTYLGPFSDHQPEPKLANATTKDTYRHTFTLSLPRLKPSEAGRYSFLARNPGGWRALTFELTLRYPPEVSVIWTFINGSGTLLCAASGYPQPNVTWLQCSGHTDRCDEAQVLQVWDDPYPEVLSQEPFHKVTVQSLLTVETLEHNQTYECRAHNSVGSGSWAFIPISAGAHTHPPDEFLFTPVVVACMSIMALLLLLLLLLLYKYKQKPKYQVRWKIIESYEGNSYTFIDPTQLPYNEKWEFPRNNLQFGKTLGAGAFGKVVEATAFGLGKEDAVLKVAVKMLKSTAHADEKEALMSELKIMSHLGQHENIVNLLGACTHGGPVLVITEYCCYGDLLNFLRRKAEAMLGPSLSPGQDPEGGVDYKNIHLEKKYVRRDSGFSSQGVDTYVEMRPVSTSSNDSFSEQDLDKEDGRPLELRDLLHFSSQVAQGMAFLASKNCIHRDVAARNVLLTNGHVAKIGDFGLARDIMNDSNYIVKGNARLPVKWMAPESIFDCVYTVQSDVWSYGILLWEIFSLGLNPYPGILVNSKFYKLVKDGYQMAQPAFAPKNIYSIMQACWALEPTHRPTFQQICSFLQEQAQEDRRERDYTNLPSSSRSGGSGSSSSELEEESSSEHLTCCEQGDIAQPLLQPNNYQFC
T6 sequence (P53779 whole entry): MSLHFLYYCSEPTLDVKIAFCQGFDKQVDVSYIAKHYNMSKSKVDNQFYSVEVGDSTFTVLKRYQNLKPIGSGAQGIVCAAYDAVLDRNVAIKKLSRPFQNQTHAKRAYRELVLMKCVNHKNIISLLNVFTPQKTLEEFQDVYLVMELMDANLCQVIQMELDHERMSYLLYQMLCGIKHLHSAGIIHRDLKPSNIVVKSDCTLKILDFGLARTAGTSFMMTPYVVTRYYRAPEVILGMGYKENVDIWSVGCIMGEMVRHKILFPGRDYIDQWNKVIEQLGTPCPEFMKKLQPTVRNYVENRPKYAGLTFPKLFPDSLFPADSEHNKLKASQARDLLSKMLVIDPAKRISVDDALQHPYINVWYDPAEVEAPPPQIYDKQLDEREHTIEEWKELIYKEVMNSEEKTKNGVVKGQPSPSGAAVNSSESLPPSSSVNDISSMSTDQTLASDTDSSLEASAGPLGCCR
T1 sequence (P35968 20-1356): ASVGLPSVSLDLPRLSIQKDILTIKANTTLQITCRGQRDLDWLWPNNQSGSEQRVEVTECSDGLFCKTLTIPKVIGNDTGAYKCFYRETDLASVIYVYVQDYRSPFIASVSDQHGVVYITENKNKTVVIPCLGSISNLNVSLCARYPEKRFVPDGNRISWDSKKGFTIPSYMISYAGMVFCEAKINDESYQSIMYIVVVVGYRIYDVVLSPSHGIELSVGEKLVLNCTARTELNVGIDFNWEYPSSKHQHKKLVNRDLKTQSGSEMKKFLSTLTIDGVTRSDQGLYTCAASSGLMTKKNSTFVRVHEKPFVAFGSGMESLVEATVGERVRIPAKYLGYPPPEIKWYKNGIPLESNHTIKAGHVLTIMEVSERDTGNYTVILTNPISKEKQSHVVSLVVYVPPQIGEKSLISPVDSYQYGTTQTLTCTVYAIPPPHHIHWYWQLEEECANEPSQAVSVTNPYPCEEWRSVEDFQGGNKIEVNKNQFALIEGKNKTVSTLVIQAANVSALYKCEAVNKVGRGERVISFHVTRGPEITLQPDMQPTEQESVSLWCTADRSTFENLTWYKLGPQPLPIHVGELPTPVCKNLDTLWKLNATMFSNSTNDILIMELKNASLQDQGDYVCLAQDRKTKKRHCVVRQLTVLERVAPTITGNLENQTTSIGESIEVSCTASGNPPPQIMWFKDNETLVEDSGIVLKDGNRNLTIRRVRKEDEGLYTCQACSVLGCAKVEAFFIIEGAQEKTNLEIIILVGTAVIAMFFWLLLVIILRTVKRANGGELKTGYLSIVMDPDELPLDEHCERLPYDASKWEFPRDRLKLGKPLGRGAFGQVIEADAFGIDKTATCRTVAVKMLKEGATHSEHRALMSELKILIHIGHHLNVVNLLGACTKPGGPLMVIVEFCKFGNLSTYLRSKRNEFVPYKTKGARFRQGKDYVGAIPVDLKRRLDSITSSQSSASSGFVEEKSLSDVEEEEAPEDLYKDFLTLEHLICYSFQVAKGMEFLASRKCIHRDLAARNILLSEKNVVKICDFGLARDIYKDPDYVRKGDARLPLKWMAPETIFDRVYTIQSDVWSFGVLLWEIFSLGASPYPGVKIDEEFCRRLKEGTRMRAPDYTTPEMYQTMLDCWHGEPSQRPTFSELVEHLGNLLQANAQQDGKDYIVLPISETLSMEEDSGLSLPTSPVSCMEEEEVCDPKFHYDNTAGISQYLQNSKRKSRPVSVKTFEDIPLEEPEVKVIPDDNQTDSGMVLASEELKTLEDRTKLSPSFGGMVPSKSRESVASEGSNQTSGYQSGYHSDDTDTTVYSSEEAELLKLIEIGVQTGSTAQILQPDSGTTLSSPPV
T7 sequence (P11362 458-765 C488A/C584S): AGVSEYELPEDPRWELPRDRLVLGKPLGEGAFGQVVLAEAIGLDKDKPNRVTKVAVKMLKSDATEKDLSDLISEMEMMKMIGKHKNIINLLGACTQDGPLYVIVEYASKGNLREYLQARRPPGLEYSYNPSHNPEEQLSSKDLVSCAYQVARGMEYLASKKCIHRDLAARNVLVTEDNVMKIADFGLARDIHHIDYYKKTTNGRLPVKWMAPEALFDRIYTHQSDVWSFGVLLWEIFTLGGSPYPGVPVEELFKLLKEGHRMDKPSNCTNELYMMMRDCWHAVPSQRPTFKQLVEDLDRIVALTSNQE
T10 sequence (Q05397 411-686): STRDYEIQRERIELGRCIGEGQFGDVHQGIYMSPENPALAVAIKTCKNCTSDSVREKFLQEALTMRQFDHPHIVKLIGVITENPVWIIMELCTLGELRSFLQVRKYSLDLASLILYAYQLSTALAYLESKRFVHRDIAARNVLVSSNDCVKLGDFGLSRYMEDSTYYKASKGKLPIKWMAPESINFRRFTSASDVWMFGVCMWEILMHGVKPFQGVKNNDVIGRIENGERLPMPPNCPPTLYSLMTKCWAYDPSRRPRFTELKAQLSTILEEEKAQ
T8 sequence (P15056 whole entry): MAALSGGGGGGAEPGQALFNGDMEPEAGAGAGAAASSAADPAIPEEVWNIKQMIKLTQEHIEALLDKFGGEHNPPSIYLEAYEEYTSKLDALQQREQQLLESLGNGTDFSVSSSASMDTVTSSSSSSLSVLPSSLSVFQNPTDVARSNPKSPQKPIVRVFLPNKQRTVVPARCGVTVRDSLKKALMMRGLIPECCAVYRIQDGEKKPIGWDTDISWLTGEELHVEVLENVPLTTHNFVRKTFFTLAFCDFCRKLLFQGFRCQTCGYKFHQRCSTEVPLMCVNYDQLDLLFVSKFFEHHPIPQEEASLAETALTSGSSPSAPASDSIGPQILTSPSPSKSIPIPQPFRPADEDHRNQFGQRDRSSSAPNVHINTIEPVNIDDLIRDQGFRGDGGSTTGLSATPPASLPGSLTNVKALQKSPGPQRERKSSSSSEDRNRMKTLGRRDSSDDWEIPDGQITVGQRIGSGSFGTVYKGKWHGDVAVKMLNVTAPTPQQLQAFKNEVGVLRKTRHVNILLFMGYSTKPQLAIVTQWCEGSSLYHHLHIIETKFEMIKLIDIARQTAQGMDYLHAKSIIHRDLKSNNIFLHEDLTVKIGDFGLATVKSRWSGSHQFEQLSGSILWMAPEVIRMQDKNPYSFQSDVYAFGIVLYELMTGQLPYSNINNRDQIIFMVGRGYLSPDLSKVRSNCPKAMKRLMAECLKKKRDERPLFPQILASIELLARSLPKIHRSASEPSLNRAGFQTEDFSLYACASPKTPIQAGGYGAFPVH

Consider `Fc1ccc(-c2c(CSCc3ccco3)[nH]c3ncccc23)cc1` [Compound P-0064], for which the 50% inhibitory concentration (IC50) on Kdr, on Stk6, at Kit and at Ret was not above 10 µM throughout.
As to `OCc1cccc(-c2ccnc3[nH]cc(Sc4cccs4)c23)c1` [Compound P-0071], the concentration for half-maximal inhibition (IC50) at Kdr, at B-Raf V600E, at Stk6 and at Ret was not above 10 µM throughout.
In the case of `CC(=O)c1cccc(-c2cnc3[nH]ccc3c2)c1` [Compound P-0080], the half-maximal inhibitory concentration (IC50) at Stk6 and on Jnk3 was not above 10 µM in each case.
For `CC(=O)c1cccc(-c2ccnc3[nH]cc(Sc4cccs4)c23)c1` [Compound P-0092], the half-maximal inhibitory concentration (IC50) at Kdr, at B-Raf V600E and on Stk6 was not above 10 µM throughout.
For the molecule `O=C(O)/C=C/c1cccc(-c2ccnc3[nH]cc(C(=O)c4ccc(Cl)cc4)c23)c1` [Compound P-0100], the 50% inhibitory concentration (IC50) on Kdr, at B-Raf V600E, on Stk6 and on Ret was not above 10 µM throughout.
Consider `O=C(O)/C=C/c1cccc(-c2ccnc3[nH]cc(C(=O)c4cccc(Cl)c4Cl)c23)c1` [Compound P-0110], for which the IC50 on Kdr, on B-Raf V600E, at Stk6 and at Ret was not above 10 µM each time.
`c1ccc(COc2cccc(Cc3c[nH]c4ncc(-c5ccsc5)cc34)c2)cc1` [Compound P-0132]: the IC50 at FGFR1, at Stk6, at Kit and at Jnk3 was not above 10 µM throughout.
Consider `COC(c1c(F)ccc(N(Cc2ccccc2)Cc2ccccc2)c1F)c1c[nH]c2ncc(-c3cccnc3)cc12` (stereo not drawn) [Compound P-0143], for which the IC50 at Kdr, on Stk6 and on B-Raf was not above 10 µM throughout.
On to `Cn1cccc1C(=O)c1c[nH]c2ncccc12` [Compound P-0147], for which the IC50 on Kdr, at B-Raf V600E and on Stk6 was not above 10 µM throughout.
Regarding `Fc1cccc(-c2ccnc3[nH]cc(Sc4cccs4)c23)c1` [Compound P-0181], the IC50 at B-Raf V600E, at Stk6 and on Ret was not above 10 µM throughout.
`O=C(c1ccc(Nc2cccc(O)c2)nc1)c1c[nH]c2ncccc12` [Compound P-0189]: the IC50 at FGFR1, at Kdr, on Stk6, on Fms and at Jnk3 was not above 10 µM throughout.
As for `Cc1ccc(-c2ccnc3[nH]cc(Sc4cccs4)c23)cc1[N+](=O)[O-]` [Compound P-0199], the concentration for half-maximal inhibition (IC50) on Kdr, at B-Raf V600E and on Stk6 was not above 10 µM throughout.
As for `O=C(O)/C=C/c1ccc(-c2ccnc3[nH]ccc23)cc1` [Compound P-0203], the half-maximal inhibitory concentration (IC50) at Kdr and at Stk6 was not above 10 µM throughout.
Take `Fc1cccc(-c2ccnc3[nH]ccc23)c1` [Compound P-0225]: the half-maximal inhibitory concentration (IC50) on Kdr and at Stk6 was not above 10 µM each time.
Consider `Cc1ccc(Sc2c[nH]c3nccc(-c4cccc(CO)c4)c23)cc1` [Compound P-0250], for which the IC50 on Stk6 and at Ret was not above 10 µM in each case.
As to `c1cnc2[nH]cc(-c3ccoc3)c2c1` [Compound P-0260], the concentration for half-maximal inhibition (IC50) on Kdr and at Stk6 was not above 10 µM throughout.
For the molecule `OC(c1ccc(NCc2ccc(Cl)cc2)nc1)c1c[nH]c2ncccc12` (stereo not drawn) [Compound P-0261], the IC50 at Kdr, on B-Raf V600E and on Stk6 was not above 10 µM in each case.
Take `c1ccc(-c2cnc3[nH]ccc3c2)cc1` [Compound P-0279]: the 50% inhibitory concentration (IC50) at Kdr, at Stk6, on Kit and on Jnk3 was not above 10 µM throughout.
As for `O=C(c1ccc(Oc2cc(Cl)cc(Cl)c2)o1)c1c[nH]c2ncccc12` [Compound P-0295], the IC50 at Kdr, on B-Raf V600E and at Stk6 was not above 10 µM in each case.
With `COc1ccc(-c2c(CSCC(C)C)[nH]c3ncccc23)cc1` [Compound P-0313], the IC50 at Stk6 and on Jnk3 was not above 10 µM each time.
Regarding `c1coc(-c2nc(-c3ccnc4[nH]ccc34)no2)c1` [Compound P-0319], the 50% inhibitory concentration (IC50) on Kdr and at Stk6 was not above 10 µM in each case.
`c1coc(CNCc2c[nH]c3ncccc23)c1` [Compound P-0322]: the concentration for half-maximal inhibition (IC50) on Kdr and on Stk6 was not above 10 µM throughout.
Consider `Cc1cccc(C)c1Cc1c[nH]c2ncccc12` [Compound P-0333, 3-(2,6-Dimethyl-benzyl)-1H-pyrrolo[2,3-b]pyridine], for which the IC50 at Fak, on B-Raf V600E, at Fms and at Kit was not above 10 µM throughout.
On to `COc1ccc(CCCc2c[nH]c3ncccc23)cc1` [Compound P-0437], for which, on Fak, the IC50 is not above 10 µM.
Regarding `Cc1cc(C(=O)c2c[nH]c3nccc(-c4cccc(/C=C/C(=O)O)c4)c23)n(C)n1` [Compound P-0469], the concentration for half-maximal inhibition (IC50) at Stk6 and on Ret was not above 10 µM each time.
As for `COc1cccc(C(=O)c2ccc(-c3cnc4[nH]ccc4c3)s2)c1` [Compound P-0494], the IC50 at Fak is not above 10 µM.
Regarding `CC(C)CCc1c[nH]c2ncccc12` [Compound P-0797], the IC50 at Fak is not above 10 µM.
Same read-out and setting: the value for `Cc1cc(C)cc(-c2c(C)[nH]c3ncccc23)c1` [Compound P-1054] was not above 10 µM; that for `Cc1[nH]c2ncccc2c1-c1ccc(C(C)C)cc1` [Compound P-1083] was not above 10 µM.
Still for that read-out and setting: as for `Cc1[nH]c2ncccc2c1-c1ccc(F)c(Cl)c1` [Compound P-1146], the figure is not above 10 µM.
The same measure, in the same setting: the value for `Cc1[nH]c2ncccc2c1-c1ccco1` [Compound P-1190] was not above 10 µM.
Turning to `OC(c1ccccc1F)c1c[nH]c2ncc(Br)cc12` (stereo not drawn) [Compound P-1321], the IC50 on Fak, on FGFR1, on Fms and at Kit was not above 10 µM in each case.
With `COc1cccc(Cc2c[nH]c3ncc(-c4ccccc4)cc23)c1F` [Compound P-1323, 3-(2-Fluoro-3-methoxy-benzyl)-5-phenyl-1H-pyrrolo[2,3-b]pyridine], the half-maximal inhibitory concentration (IC50) on Fak, at FGFR1, on B-Raf V600E, at Fms and at Kit was not above 10 µM throughout.
As to `CCCCN(c1ccc(F)c(Cc2c[nH]c3ncc(-c4cccnc4)cc23)c1F)S(=O)(=O)c1ccc(C(F)(F)F)cc1` [Compound P-1401], on Fak, the IC50 is not above 10 µM.
With `Fc1cccc(F)c1Cc1c[nH]c2ncccc12` [Compound P-1482, 3-(2,6-Difluoro-benzyl)-1H-pyrrolo[2,3-b]pyridine], the half-maximal inhibitory concentration (IC50) on Fak, on FGFR1, on Fms and at Kit was not above 10 µM in each case.
As for `NS(=O)(=O)c1cccc(Nc2c[nH]c3ncccc23)c1` [Compound P-1500, 3-(1H-Pyrrolo[2,3-b]pyridin-3-ylamino)-benzenesulfonamide], the IC50 at Fak, at Fms and at Kit was not above 10 µM each time.
